Experiments:
Type in all cases: in vivo
[1] = tested on: Musca domestica strain WHO-N; test: Musca domestica test (MUSCDO surface treatment & contact assay); settings: 24 hours after contact, read-out: efficacy (mortality); for mortality at 20 mg/m2: surface concentration 20 mg/m^2, exposure 30 minutes; for mortality at 4 mg/m2: surface concentration 4 mg/m^2, exposure 30 minutes
Method: Musca domestica Test (MUSCDO Surface Treatment & Contact Assay)
(§1) Solvent: Aceton+2000 ppm rapeseed oil methyl ester (RME)
(§2) In order to produce a sufficient, active ingredient containing solution it is necessary to solve the test compound in the solvent-mix (acetone at 2 mg/ml/RME 2000 ppm). This solution is pipetted onto a glazed tile and after evaporation of the acetone, adult flies of the species Musca domestica strain WHO—N are placed onto the dried surface. The exposure time is 30 minutes. Mortality in percent (%) is determined 24 hours after contact of the insects to the treated surface. 100% mortality means that all tested insects are dead, whereas 0% means that no insect died.

[2] = tested on: adult unfed cat fleas (Ctenocephalides felis); test: Ctenocephalides felis oral test; settings: 48 h, read-out: activity (mortality)
Method in brief: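 About 20 adult unfed fleas fed through parafilm on cattle blood containing compound (DMSO stock diluted in blood), blood held at 37 °C and fleas at room temperature. Mortality (%) scored after 2 days.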

[3] = tested on: adult engorged female ticks (Rhipicephalus microplus); test: Rhipicephalus (Boophilus) microplus injection test; settings: 168 h, egg deposition after 7 days, read-out: activity (efficacy: infertile eggs); for pest or weed control at 4 pg: application rate 4 pg/animal; for pest or weed control at 0.02 mg: application rate 20 μg/animal
Method in brief: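 Abdominal injection, 1 μL compound/DMSO, n=5 engorged adult females; climate-chamber incubation. Readout d7: fertile egg laying; doubtful eggs held to hatch (~42 d). % efficacy = infertile eggs (100% all infertile).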

[4] = tested on: green peach aphid (Myzus persicae); test: Myzus persicae oral test; settings: 120 h, application rate 4 ppm, after 5 days
Method in brief: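 Aphids of mixed population ingest the compound preparation by sucking through a parafilm sheet stretched over wells holding test solution plus IPL41 insect medium (33%+15% sugar). Kill rate in percent is determined five days later.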

[5] = tested on: adult brown dog ticks (Rhipicephalus sanguineus); test: Rhipicephalus sanguineus in-vitro contact test, adult brown dog ticks; settings: after 48 hours, read-out: activity (efficacy: ticks dead or moribund); for pest or weed control at 5 µg/cm2, 500 g/ha: application rate 5 μg/cm^2 (=500 g/ha); for pest or weed control at 100 g/ha: application rate 1 pg/cm^2 (=100 g/ha)
Method in brief: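 Read-out: % efficacy as dead or moribund ticks, judged 48 h after exposure by failure to climb away from a 45-50° C heating plate within 5 min. Tubes were coated with acetone solution (900 ppm = 5 μg/cm^2 surface dose) and held 5-10 adults each at room temperature.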

[6] = tested on: fall armyworm larvae (Spodoptera frugiperda); test: Spodoptera frugiperda spray test; settings: 168 h, read-out: activity (mortality)
Method in brief: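 Larvae of fall armyworm placed on dried maize leaf sections previously sprayed with emulsified compound (acetone/DMF solvent, water with 1000 ppm emulsifier). Percent of caterpillars killed recorded on day 7, 0–100% scale.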

[7] = tested on: Rhipicephalus microplus larvae (strain Parkhurst, resistant against synthetic pyrethroids); test: Rhipicephalus (Boophilus) microplus in-vitro contact test, larval cattle tick; settings: after 48 hours, read-out: activity (efficacy: larvae dead or moribund); for pest or weed control at 100 g/ha: application rate 1 pg/cm^2 (=100 g/ha); for pest or weed control at 500 g/ha: application rate 5 pg/cm^2 (=500 g/ha)
Method in brief: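 Larvae (20-50 per tube) exposed to dry compound film on glass tube walls, 5 μg/cm^2 at 900 ppm, applied from acetone. After 48 h at 27° C./85% RH, tubes tapped and negative geotaxis scored; efficacy as percent dead or moribund larvae.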

[8] = tested on: larvae of the banded cucumber beetle (Diabrotica balteata); test: Diabrotica balteata spray test; settings: 168 h, after 7 days, read-out: activity (efficacy: seedlings grown); for pest or weed control at 100 g/ha: application rate 100 g/ha (=32 pg/well); for pest or weed control at 500 g/ha: application rate 500 g/ha (=160 pg/well)
Method in brief: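 Read-out is % efficacy at day 7, 0% meaning no seedling growth and 100% growth equal to uninfested untreated controls. Test solutions (acetone/DMF concentrate diluted with water carrying 1000 ppm emulsifier) were sprayed onto 1-day-germinated wheat seeds, 5 per well, before infestation with 10-20 larvae.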

[9] = tested on: Aedes aegypti strain MONHEIM; test: Aedes aegypti test (AEDSAE surface treatment & contact assay); settings: 24 hours after contact, read-out: efficacy (mortality); for mortality at 4 mg/m2: surface concentration 4 mg/m^2, exposure 30 minutes; for mortality at 20 mg/m2: surface concentration 20 mg/m^2, exposure 30 minutes
Method in brief: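 Percent mortality was read 24 h after adult MONHEIM mosquitoes were held for 30 min on a tile treated with compound. Compound applied from acetone solution (2 mg/ml) containing 2000 ppm rapeseed oil methyl ester, after evaporation.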

[10] = tested on: green peach aphid (Myzus persicae); test: Myzus persicae spray test; settings: 120 h, after 5 days; for mortality at 100 g/ha: application rate 100 g/ha; for mortality at 500 g/ha: application rate 500 g/ha
Method: Myzus persicae—Spray Test
Solvent: 78.0 parts by weight acetone • 1.5 parts by weight dimethylformamide
Emulsifier: alkylarylpolyglycol ether
To produce a suitable preparation of active compound, 1 part by weight of active compound is mixed with the stated amount of solvents and is diluted with water, containing an emulsifier concentration of 1000 ppm, to the desired concentration. Further test concentrations are prepared by dilution with emulsifier containing water.
Chinese cabbage (Brassica pekinensis) leaf disks infected with all instars of the green peach aphid (Myzus persicae), are sprayed with a preparation of the active ingredient of the desired concentration.
After 5 days mortality in % is determined. 100% means all aphids have been killed and 0% means none of the aphids have been killed.

[11] = tested on: larvae of the southern green stink bug (Nezara viridula); test: Nezara viridula spray test; settings: 96 h, after 4 days; for mortality at 100 g/ha: application rate 100 g/ha; for mortality at 500 g/ha: application rate 500 g/ha
Method in brief: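 Larva-infested barley (Hordeum vulgare) plants received a spray of test solution prepared from an acetone/DMF concentrate diluted in emulsifier-containing water (1000 ppm). Percent kill read 4 days later; 0% means no stink bugs dead.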

[12] = tested on: adult cat fleas (Ctenocephalides felis); test: Ctenocephalides felis in-vitro contact test, adult cat flea; settings: application rate 5 μg/cm^2 (=500 g/ha), after 48 hours, read-out: activity (efficacy: fleas dead or moribund)
Method: Ctenocephalides felis—In-Vitro Contact Tests Adult Cat Flea
9 mg compound is solved in 1 mL acetone and diluted with acetone to the desired concentration. 250 μL of the test solution is filled in 25 mL glass test tubes and homogeneously distributed on the inner walls by rotation and tilting on a shaking device (2 h at 30 rpm). With a compound concentration of 900 ppm, an inner surface of 44.7 cm^2 and a homogeneous distribution, a dose of […] is achieved.
After the solvent has evaporated, each test tube is filled with 5-10 adult cat fleas (Ctenocephalides felis), closed with a perforated lid and incubated in a lying position at room temperature and relative humidity. After 48 hours efficacy is determined. The fleas are patted on the ground of the tubes and are incubated on a heating plate at 45-50° C. for at most 5 minutes. Immotile or uncoordinated moving fleas, which are not able to escape the heat by climbing upwards, are marked as dead or moribund.
An efficacy of 100% means all fleas are dead or moribund; 0% means no fleas are dead or moribund.

[13] = tested on: Culex quinquefasciatus strain P00; test: Culex quinquefasciatus test (CULXFA surface treatment & contact assay); settings: 24 hours after contact, read-out: efficacy (mortality)
Method: Culex quinquefasciatus Test (CULXFA Surface Treatment & Contact Assay)
as §1
as §2, with “2 000” for “2000”, “mosquitoes” for “flies”, “Culex quinquefasciatus” for “Musca domestica”, “P00” for “WHO—N”

Row | Structure (SMILES) | mortality at 20 mg/m2 [1] | mortality at 100 ppm [2] | pest or weed control at 4 pg [3] | pest or weed control at 0.02 mg [3] | mortality at 4 ppm [4] | pest or weed control at 5 µg/cm2, 500 g/ha [5] | mortality at 4 mg/m2 [1] | mortality at 100 g/ha [6] | pest or weed control at 100 g/ha [7] | pest or weed control at 500 g/ha [7] | pest or weed control at 100 g/ha [8] | pest or weed control at 100 g/ha [5] | mortality at 4 mg/m2 [9] | mortality at 20 mg/m2 [9] | mortality at 100 g/ha [10] | mortality at 100 g/ha [11] | mortality at 500 g/ha [11] | pest or weed control at 5 µg/cm2 [12] | mortality at 500 g/ha [6] | pest or weed control at 500 g/ha [8] | other results
1 | C[C@H](NC(=O)c1cc(Cl)cc(S(=O)(=O)CC(F)(F)F)c1)c1nc(C2CC2)nn1-c1ccc(C#N)cn1 [I-13] | 80 to 100% | 90% | 100% | 100% | 90% |  |  |  |  |  |  |  |  |  |  |  |  |  |  |  | 
2 | CCS(=O)(=O)c1cc(C(=O)N[C@@H](C)c2nc(C3CC3)nn2-c2ccc(C#N)cn2)cc(C(F)(F)F)c1 [I-19] | 80 to 100% | 90% | 100% | 100% | 100% | 80% | 80 to 100% | 100% | 100% | 100% | 80% |  |  |  |  |  |  |  |  |  | 
3 | C[C@H](NC(=O)c1cc(Cl)cc(C2(C#N)CC2)c1)c1nc(C2CC2)nn1-c1ccc(C#N)cn1 [I-36] | 80 to 100% | 100% | 100% |  |  | 80% | 80 to 100% | 100% | 100% | 100% | 100% | 100% | 80 to 100% | 80 to 100% |  |  |  |  |  |  | 
4 | COc1nc([C@H](C)NC(=O)c2cc(OC(F)(F)F)cc(S(C)(=O)=O)c2)n(-c2ccc(Cl)cn2)n1 [I-80] | 80 to 100% |  |  |  | 100% |  | 80 to 100% | 100% |  |  | 100% |  |  |  | 90% | 100% | 100% |  |  |  | 
5 | Cc1nc([C@H](C)NC(=O)c2cc(C)n(C)n2)n(-c2ccc(C#N)cn2)n1 [II-6] |  | 100% | 100% | 100% |  | 100% |  |  |  |  |  | 80% | 80 to 100% | 80 to 100% | 90% |  |  | 100% | 100% | 100% | mortality at 4 mg/m2 ([13]; surface concentration 4 mg/m^2, exposure 30 minutes): 80 to 100%; mortality at 20 mg/m2 ([13]; surface concentration 20 mg/m^2, exposure 30 minutes): 80 to 100%; mortality at 500 g/ha [10]: 90%
6 | C[C@H](NC(=O)c1cc(C#N)cc(S(C)(=O)=O)c1)c1ncnn1-c1ccc(C#N)cn1 [II-9] |  | 100% | 100% | 100% | 100% |  |  |  | 80% | 80% | 100% |  | 80 to 100% |  | 90% | 100% | 100% | 90% | 100% | 100% | mortality at 500 g/ha [10]: 90%
7 | Cc1nc([C@H](C)NC(=O)c2cc(Cl)cc(S(=O)(=O)C(F)(F)F)c2)n(-c2ccc(Cl)cn2)n1 [II-14] | 80 to 100% |  | 80% | 100% |  |  |  | 100% |  | 80% | 100% |  |  |  |  |  | 100% | 90% | 100% | 100% | 
8 | C[C@H](NC(=O)c1cc(Br)cc(S(C)(=O)=O)c1)c1ncnn1-c1ccc(C#N)cn1 [II-41] |  | 100% | 100% | 100% | 100% | 100% |  | 100% | 100% | 100% | 100% | 100% |  |  | 100% | 100% |  | 100% |  |  | 
9 | C[C@H](NC(=O)c1cc(Cl)cc(C2(C#N)CC2)c1)c1ncnn1-c1ncc(Cl)cn1 [II-55] |  | 100% | 100% |  | 100% | 100% |  | 100% | 100% | 100% | 100% | 100% |  |  | 100% | 100% |  | 100% |  |  | 
10 | C[C@H](NC(=O)c1cc(C2CC2)cc(C2CC2)c1)c1ncnn1-c1ccc(C#N)cn1 [II-57] |  | 100% | 100% |  | 100% | 100% | 80 to 100% | 100% | 100% | 100% | 100% | 80% | 80 to 100% | 80 to 100% |  |  |  |  |  |  | 
